According to ChEMBL document CHEMBL5506062, “Discovery and Optimization of N-Arylated Tetracyclic Dicarboximides That Target Primary Glioma Stem-like Cells” (J Med Chem, 2024):

Tests used:
Format in all cases: ADME, organism-based
[1] = Cmax in female CD-1 mouse plasma at 10 mg/kg, ip measured after 10 to 1440 mins by LC-MS/MS analysis
[2] = Tmax in female CD-1 mouse plasma at 10 mg/kg, ip measured after 10 to 1440 mins by LC-MS/MS analysis
[3] = AUClast in female CD-1 mouse plasma at 10 mg/kg, ip measured after 10 to 1440 mins by LC-MS/MS analysis
[4] = Cmax in female CD-1 mouse brain at 10 mg/kg, ip measured after 10 to 1440 mins by LC-MS/MS analysis
[5] = Tmax in female CD-1 mouse brain at 10 mg/kg, ip measured after 10 to 1440 mins by LC-MS/MS analysis
[6] = AUClast in female CD-1 mouse brain at 10 mg/kg, ip measured after 10 to 1440 mins by LC-MS/MS analysis; conditions: in vivo
[7] = Ratio of drug concentration in brain to plasma in female CD-1 mouse at 10 mg/kg, ip measured after 10 to 1440 mins by LC-MS/MS analysis; conditions: brain and plasma, read-out: K(p,uu,brain)
[8] = Cmax in female CD-1 mouse plasma at 5 mg/kg, iv measured after 0 to 1440 mins by LC-MS/MS analysis
[9] = Tmax in female CD-1 mouse plasma at 5 mg/kg, iv measured after 0 to 1440 mins by LC-MS/MS analysis
[10] = AUClast in female CD-1 mouse plasma at 5 mg/kg, iv measured after 0 to 1440 mins by LC-MS/MS analysis
[11] = Cmax in female CD-1 mouse brain at 5 mg/kg, iv measured after 0 to 1440 mins by LC-MS/MS analysis
[12] = Tmax in female CD-1 mouse brain at 5 mg/kg, iv measured after 0 to 1440 mins by LC-MS/MS analysis
[13] = AUClast in female CD-1 mouse brain at 5 mg/kg, iv measured after 0 to 1440 mins by LC-MS/MS analysis; conditions: in vivo
[14] = Cmax in female CD-1 mouse plasma at 20 mg/kg, po measured after 0 to 1440 mins by LC-MS/MS analysis
[15] = Tmax in female CD-1 mouse plasma at 20 mg/kg, po measured after 0 to 1440 mins by LC-MS/MS analysis
[16] = AUClast in female CD-1 mouse plasma at 20 mg/kg, po measured after 0 to 1440 mins by LC-MS/MS analysis
[17] = Cmax in female CD-1 mouse brain at 20 mg/kg, po measured after 0 to 1440 mins by LC-MS/MS analysis
[18] = Tmax in female CD-1 mouse brain at 20 mg/kg, po measured after 0 to 1440 mins by LC-MS/MS analysis
[19] = AUClast in female CD-1 mouse brain at 20 mg/kg, po measured after 0 to 1440 mins by LC-MS/MS analysis; conditions: in vivo
[20] = Oral bioavailability in female CD-1 mouse plasma at 20 mg/kg measured after 0 to 1440 mins by LC-MS/MS analysis
[21] = Oral bioavailability in female CD-1 mouse brain at 20 mg/kg measured after 0 to 1440 mins by LC-MS/MS analysis
[22] = Cmax in female CD-1 mouse brain at 20 mg/kg, po measured at 90 mins by LC-MS/MS analysis
[23] = Drug concentration in female CD-1 mouse plasma at 20 mg/kg, po measured at 30 mins by LC-MS/MS analysis
[24] = Drug concentration in female CD-1 mouse brain at 20 mg/kg, po measured at 30 mins by LC-MS/MS analysis; conditions: read-out: Ct
[25] = Drug concentration in female CD-1 mouse liver at 20 mg/kg, po measured at 30 mins by LC-MS/MS analysis; conditions: read-out: Ct

Cmax [1] | Tmax [2] | AUC(0-t) [3] | Cmax [4] | Tmax [5] | AUClast [6] | Kp uu [7] | Structure (SMILES) | also measured
3440 ng/mL | 10 min | 4780 ng·h/mL | 978 ng/g | 30 min | 83823 ng·min/g | 0.29 | O=C(COc1cnc(N2C(=O)[C@@H]3[C@@H]4C=C[C@@H]([C@H]5C[C@@H]45)[C@@H]3C2=O)nc1)c1ccc(Cl)c(Cl)c1 | –
887 ng/mL | 10 min | 4350 ng·h/mL | 992 ng/g | 30 min | 294638 ng·min/g | 1.13 | COc1ccc(C(=O)C2CC2c2ccc(N3C(=O)[C@@H]4[C@@H]5C=C[C@@H]([C@H]6C[C@@H]56)[C@@H]4C3=O)cc2)cc1 (stereo partly specified) | –
1970 ng/mL | 30 min | 7340 ng·h/mL | 1110 ng/g | 30 min | 220405 ng·min/g | 0.5 | COc1ccc(C(=O)C2CC2c2ccc(N3C(=O)[C@@H]4[C@@H]5C=C[C@@H]([C@H]6C[C@@H]56)[C@@H]4C3=O)c(F)c2)cc1Cl (stereo partly specified) | –
1300 ng/mL | 30 min | 4830 ng·h/mL | 2530 ng/g | 90 min | 720503 ng·min/g | 2.49 | O=C(COc1ccc(N2C(=O)[C@@H]3[C@@H]4C=C[C@@H]([C@H]5C[C@@H]45)[C@@H]3C2=O)cc1)c1cc(Cl)cc(Cl)c1 | Cmax [8]: 12000 ng/mL; Tmax [9]: 5 min; AUC(0-t) [10]: 14800 ng·h/mL; Cmax [11]: 3260 ng/g; Tmax [12]: 5 min; AUClast [13]: 767638 ng·min/g; Cmax [14]: 3400 ng/mL; Tmax [15]: 30 min; AUC(0-t) [16]: 23100 ng·h/mL; Cmax [17]: 2380 ng/g; Tmax [18]: 1.5 h; AUClast [19]: 1774789 ng·min/g; bioavailability [20]: 39%; bioavailability [21]: 58%; Cmax at […] [22]: 2380 ng/g; concentration at 0.5 h [23]: 1430 ng/mL; concentration at 0.5 h [24]: 1160 ng/g; concentration at 0.5 h [25]: 11500 ng/g
